Columns and labels:
[1] = target: T1, human androgen receptor (AR) (Homo sapiens, UniProt P10275); test: C2C12 AR/ARE reporter assay; assay type: cell-based; details: average; for Emax: C2C12, read-out: C2C12 % Efficacy, versus maximum stimulation obtained with 10 nM methyltrienolone; for EC50: C2C12 EC50(nM), mouse myoblast C2C12 cells, luciferase reporter, 48 h
T1 construct: expressed in transfected cells; host or cells: mouse myoblast C2C12 cells, transiently co-transfected with FuGENE
T1 sequence (P10275 1-920): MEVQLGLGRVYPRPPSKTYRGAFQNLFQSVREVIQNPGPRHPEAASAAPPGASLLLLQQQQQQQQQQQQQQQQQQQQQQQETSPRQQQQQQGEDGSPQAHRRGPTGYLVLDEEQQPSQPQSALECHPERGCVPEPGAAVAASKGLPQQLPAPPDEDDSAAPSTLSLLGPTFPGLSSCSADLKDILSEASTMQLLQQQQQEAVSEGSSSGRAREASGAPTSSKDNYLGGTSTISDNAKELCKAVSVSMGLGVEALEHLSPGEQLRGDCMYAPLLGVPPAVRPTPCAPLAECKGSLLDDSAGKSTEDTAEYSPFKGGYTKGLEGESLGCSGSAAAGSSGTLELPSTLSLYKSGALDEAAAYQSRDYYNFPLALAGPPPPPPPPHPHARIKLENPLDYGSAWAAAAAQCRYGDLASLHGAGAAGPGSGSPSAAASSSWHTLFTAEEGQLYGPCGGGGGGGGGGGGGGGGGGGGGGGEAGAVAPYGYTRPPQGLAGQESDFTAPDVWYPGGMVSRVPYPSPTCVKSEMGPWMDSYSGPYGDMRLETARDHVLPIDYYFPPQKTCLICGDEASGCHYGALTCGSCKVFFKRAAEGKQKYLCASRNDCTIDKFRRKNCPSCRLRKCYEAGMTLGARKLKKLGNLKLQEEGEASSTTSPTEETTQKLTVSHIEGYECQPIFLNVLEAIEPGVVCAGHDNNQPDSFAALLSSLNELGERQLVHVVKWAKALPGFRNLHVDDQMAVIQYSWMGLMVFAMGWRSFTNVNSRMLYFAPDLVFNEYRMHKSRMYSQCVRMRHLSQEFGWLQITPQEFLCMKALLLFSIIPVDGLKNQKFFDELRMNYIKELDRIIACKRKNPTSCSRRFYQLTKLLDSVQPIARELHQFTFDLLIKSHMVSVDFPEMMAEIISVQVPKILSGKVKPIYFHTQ
Procedure: As an indicator of agonist activity in muscle tissue, the C2C12 AR/ARE reporter assay is performed. Briefly, mouse myoblast C2C12 cells are co-transfected using FuGENE™. […] Cells are transfected in T150 cm^2 flasks in DMEM media with 4% or 10% Fetal Bovine Serum (FBS). After a 5 hour incubation, transfected cells are trypsinized, plated in 96 well dishes in DMEM media containing 10% charcoal-stripped FBS, incubated for 2 h and then exposed to various concentrations of test compounds ranging from about 0.01 nM to 10 μM. After 48 h of incubations with compounds, cells are lysed and luciferase activity is determined using standard techniques. Data is fit to a 4 parameter-fit logistics to determine EC50 values. The % efficacy is determined versus maximum stimulation obtained with 10 nM methyltrienolone. […]

[2] = target: T2, human AR (androgen receptor) (Homo sapiens, UniProt P10275); test: Steroid hormone nuclear receptor binding assay (AR binding); details: AR binding Ki (nM), 293-AR cell lysate, 3H-methyltrienolone competition
T2 construct: expressed in transfected cells; host or cells: 293 cells (293-AR lysate)
T2 sequence (P10275 1-920): T1 sequence (P10275 1-920)
Procedure: Cell lysates from 293 cells overexpressing human GR (glucocorticoid receptor), AR (androgen receptor), MR (mineralocorticoid receptor) or PR (progesterone receptor) are used for competition binding assays to determine Ki values for test compounds. Briefly, competition binding assays are run in a buffer containing 20 mM Hepes, pH 7.6, 0.2 mM EDTA, 75 mM NaCl, 1.5 mM MgCl2, 20% glycerol, 20 mM sodium molybdate, 0.2 mM DTT, 20 ug/ml aprotinin and 20 ug/ml leupeptin, using either 0.3 nM ^3H-dexamethasone for GR binding, 0.36 nM ^3H-methyltrienolone for AR binding, 0.25 nM ^3H-aldosterone for MR binding, or 0.29 nM ^3H-methyltrienolone for PR binding, and either 20 ug 293-GR lysate, 22 ug 293-AR lysate, 20 ug 293-MR lysate or 40 ug 293-PR lysate per well. Competing compounds are added at various concentrations ranging from about 0.01 nM to 10 μM. Non-specific binding is determined in the presence of 500 nM dexamethasone for GR binding, 500 nM aldosterone for MR binding, or 500 nM methyltrienolone for AR and PR binding. The binding reaction (140 μl) is incubated for overnight at 4° C., then 70 μl of cold charcoal-dextran buffer (containing per 50 ml of assay buffer, 0.75 g of charcoal and 0.25 g of dextran) is added to each reaction. Plates are mixed 8 minutes on an orbital shaker at 4° C. Plates are then centrifuged at 3,000 rpm at 4° C. for 10 minutes. An aliquot of 120 μl of the mix is transferred to another 96-well plate and 175 μl of Wallac Optiphase “Hisafe 3” scintillation fluid is added to each well. Plates are sealed and shaken vigorously on an orbital shaker. After an incubation of 2 hrs, plates are read in a Wallac Microbeta counter. The data is used to calculate an IC50 and % Inhibition at 10 μM. The Kd for ^3H-dexamethasone for GR binding, ^3H-methyltrienolone for AR binding, ^3H-aldosterone for MR binding, or ^3H-methyltrienolone for PR binding, is determined by saturation binding. The IC50 values for test compounds are converted to Ki using Cheng-Prusoff equation and the Kd determined by saturation binding assay.
Binding assay protocols for steroid hormone nuclear receptors similar to those described above can be readily designed by the ordinarily skilled artisan.

[3] = tested on: castrated male ICR mice; test: In vivo mouse model of efficacy and selectivity (castrated mice, tissue wet weights); details: for % Efficacy: (ANOVA, p < 0.05): Levator Ani muscle wet weight vs castrated vehicle-only control x100, 10 mg/kg/d, two weeks; for Seminal vesicle and/or prostate weight gain: tissue selectivity indicator, castrated mice
Procedure: Male ICR mice (8 weeks old) are castrated according to approved procedures (Taconic, N.Y.) and allowed to waste for eight weeks. Age-matched sham-operated mice are also prepared. (Sham-operated mice are animals that have been exposed to the same surgical procedures as castrated animals except their testes are not removed.) Animals are housed in a temperature-controlled room (24° C.) with a reversed 12 hour light/dark cycle (dark 10:00/22:00) and water and food are available ad libitum.
Test compounds are administered to the animals using conventional vehicles. For example, for oral dosing 1% Sodium Carboxymethylcellulose (CMC)+0.25% Tween 80 in sterile H2O can be used for oral formulation and 6% Ethyl-alcohol (EtOH)+94% cyclodexitrane (CDX) can be used for subcutaneous injections. Castrated mice treated with Testosteron Enanthate (TE) (10 mg/kg/d) are used as a treatment positive control whereas castrated mice treated only with vehicle are used as treatment negative control. In addition, sham-operated mice treated with vehicle only are used as control for the surgical method.
Test animals are dosed over a two week timeframe, orally or subcutaneously, with, for example, 0.3, 1, 3, 10 or 30 mg/kg/day of a compound of the present invention. After the two-week treatment, as an indicator of activity the wet weight of the Levator Ani muscle in the test group is determined and compared to the weight in the castrated, vehicle-only control group. The percent efficacy is then calculated as follows: (Wet weight in treatment group/Wet weight in control group)×100 As an indicator of tissue selective activity, the wet weight of the seminal vesicle from test animals is similarly compared to the weight of the seminal vesicles from the castrated, vehicle-only group. In addition, a comparison of the wet weight of the prostate glands from the drug-treated group, to the wet weight of the prostate glands removed from the castrated, vehicle-only group, may also be used as an indicator of tissue selective activity.
Table II (see below) provides % efficacy data for a select sample of exemplified compounds of the present invention in an animal model essentially as described above. Animal models of efficacy and selectivity similar to those described above can be readily designed and performed by the ordinarily skilled artisan, for example, Eisenberg and Gilbert, J Pharmacol Exp Ther. 1950, 99(1), 38-44, provides an alternative rat model that may be employed to show in vivo efficacy.)

Structure (SMILES) | Emax [1] | EC50 [1] | Ki [2] | % Efficacy: (ANOVA, p < 0.05) ([3]; po) | Seminal vesicle and/or prostate weight gain [3] | % Efficacy: (ANOVA, p < 0.05) ([3]; sc) | C2C12 % Efficacy ([1]; versus maximum stimulation obtained with 10 nM methyltrienolone)
Cc1c(N2CCCC2c2ccc3c(c2)OCO3)ccc(C#N)c1Cl (stereo not shown) [Example 12] | 95.6% | 12.4 nM | 2.2 nM | 164% | no weight gain |  | 
Cc1c(N2CCCC2c2cccnc2)ccc(C#N)c1Cl (stereo not shown) [Example 9] | 90.7% | 2.6 nM | 1.3 nM |  | no weight gain | 186% | 
Cc1nnc(C2CCCN2c2ccc(C#N)c(Cl)c2C)s1 (stereo not shown) [Example 28, 2-chloro-3-methyl-4-[2-(5-methyl-1,3,4-thiadiazol-2-yl)pyrrolidin-1-yl]benzonitrile] | 74.3% | 24.4 nM | 9 nM |  |  |  | 
CCC1CCC(c2ccccc2)N1c1ccc(C#N)c(Cl)c1 (single isomer, unassigned) [Example 22c, 2-Chloro-4-(2-ethyl-5-phenyl-pyrrolidin-1-yl)-benzonitrile] |  | 135 nM | 39.8 nM |  |  |  | 61.3%
